Experimental data: EPA's ToxValDB 9.5 (doi:10.2903/j.efsa.2013.3166)
Values after ≈ are worked out from the molar mass of the structure shown.

How the values were obtained:
Perca sp. = conditions: acute; duration: 96 hours; mortality
Lepomis macrochirus = conditions: acute; duration: 96 hours; mortality
Canidae = conditions: chronic; duration: 1 years; oral; Dog Other; food consumption
Colinus virginianus = conditions: for LD50: acute, oral, mortality
Apis mellifera = conditions: acute, duration: 48 hours, mortality
Pimephales promelas = conditions: acute; mortality
Typhlodromus pyri = assay: LR50; higher = less toxic; conditions: not reported; mortality
[1] = acute, duration: 14 days, mortality

Work on `CC(C)(C)c1ccc(CCOc2ncnc3ccccc23)cc1` [Fenazaquin] yielded an LC50 (Perca sp.) of 3.2 ng/mL (≈ 0.0104 µM), an LC50 (Tagia sp.; [1]) of 26.5 mg/kg and an NOEC (Tagia sp.; chronic/long-term, duration: 8 weeks) of 1.25 mg/kg. It also gave an LC50 (Lepomis macrochirus) of 34.1 ng/mL (≈ 0.111 µM), an NOAEL (Canidae) of 5 mg/kg-day and an LD50 (Colinus virginianus; diet) greater than 1170 mg/kg-day. For the same molecule, the LD50 (Colinus virginianus) was 1750 mg/kg-day, the NOEC (Colinus virginianus; reproduction developmental) was 80.3 mg/kg-day and the LD50 (Rattus norvegicus; acute, oral, M, mortality) was 134 mg/kg-day. It also gave an NOAEL (Rattus norvegicus; chronic, duration: 2 years, oral, histopathology: nonneoplastic) of 0.46 mg/kg-day, an NOEL (Rattus norvegicus; reproduction developmental) of 25 mg/kg-day and an NOAEL (Rattus norvegicus; reproduction developmental, food consumption) of 10 mg/kg-day. For the same molecule, the LC50 (Folsomia candida; [1]) was greater than 1000 mg/kg, the NOEC (Folsomia candida; chronic/long-term, duration: 28 days) was 23 mg/kg and the LD50 (Apis mellifera; dermal) was 1.21 µg/piece. It also gave an LD50 (Apis mellifera; oral, unspecified) of 4.29 µg/piece, an LC50 (Pimephales promelas) of 4.2 ng/mL (≈ 0.0137 µM) and an LR50 (Typhlodromus pyri) of less than 2 g/ha.
